These results are taken from patent US8674113B2, “Compounds” (Boehringer Ingelheim International GmbH, priority 2010, dated 2014).

In this test the target is mPGES-1 in A549 cells (Homo sapiens (Human), UniProt O14684). In words: A549 cell-based assay (PGE2 formation, 50% human serum). Conditions: IL-1β 5 ng/ml, 10 nM arachidonic acid, 20-24 h, read-out: mPGES-1 inhibitory effect IC50 in the cell assay. On the procedure: Although the enzymatic assay is a high throughput assay the disadvantage is that it uses a recombinant protein which is not in its natural environment. Accordingly a cellular assay was established in which a cell line of human origin (A549) expressing the mPGES-1 protein was used. In addition in order to mimic the situation in humans in which compounds can be bound to plasma proteins 50% human serum is added in the assay.
Sequence of mPGES-1 in A549 cells (O14684 whole entry): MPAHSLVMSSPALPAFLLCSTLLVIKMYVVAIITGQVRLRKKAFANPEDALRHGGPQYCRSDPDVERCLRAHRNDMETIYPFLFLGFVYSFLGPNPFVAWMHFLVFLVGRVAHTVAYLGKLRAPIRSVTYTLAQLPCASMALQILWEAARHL
A549 cells (ATCC: CCL-185) are grown to about 90% confluence in F-12K Nutrient Mixture (Kaighn's Mod. Gibco) containing 10% FBS in a humified incubator at 37° C. and 5% CO2. Cells were detached using Trypsin-EDTA. A549 cells were seeded in a 384-well collagene plate at a density of 7000 cells/well (50 μl) in F-12 medium containing 1% Penicillin-Streptomycin and 50% human serum. The cells were allowed to attach for 3-4 h. After that the cells were incubated for 20-24 h in F-12k medium supplemented with 50% human serum, 1% Penicillin-Streptomycin and containing IL-1β at a final concentration of 5 ng/ml as well as 10 nM arachidonic acid in the presence of a vehicle or a test compound. The total volume is 100 μl.
Concentrations of PGE2 in the cell free medium (10 μl) were measured using a commercially available HTRF kit from Cisbio (as described above). The PGE2 formation in the absence of test compound was taken as 100%.
IC50 values were derived from at 6-8 point titrations using conventional software.
Consider `Cn1c(Nc2c(Cl)ccc(CNC(=O)C(C)(C)C)c2Cl)nc2cc(C(=O)N[C@H]3CC[C@@H](C(F)(F)F)CC3)c(N3CC4CC4C3)cc21` (some centres unmarked) [Example 155], for which the IC50 came to 0.006 µM.

For `Cn1c(Nc2c(Cl)ccc(CNC(=O)c3c(F)cncc3F)c2Cl)nc2cc(C(=O)N[C@H]3CC[C@H](C(F)(F)F)CC3)c(N3CC4CC4C3)cc21` (some centres unmarked) [Example 201], the 50% inhibitory concentration (IC50) was found to be 0.006 µM.

On to `CNc1cncc(C(=O)NCc2ccc(Cl)c(Nc3nc4cc(C(=O)N[C@H]5CC[C@H](C(F)(F)F)CC5)c(N5CC6CC6C5)cc4n3C)c2Cl)n1` (some centres unmarked) [Example 214], for which the half-inhibitory concentration (IC50) was determined as 0.113 µM.

Take `CC(C)(C)C(=O)NCc1ccc(Cl)c(Nc2nc3cc(C(=O)Nc4ccc(OC(F)(F)F)cc4)c(N4CCOCC4)cc3n2CCC(N)=O)c1Cl` [Example 268]: the IC50 amounted to 0.0065 µM.

On to `Cn1c(Nc2c(Cl)ccc(CNC(=O)C(C)(C)C)c2Cl)nc2cc(C(=O)Nc3cc(C(C)(C)C)no3)c(N3CCC(C(F)(F)F)CC3)cc21` [Example 157], for which the concentration for half-maximal inhibition (IC50) is 0.001 µM.

Regarding `CN(Cc1ncnn1C)c1cc2c(cc1C(=O)N[C@H]1CC[C@H](C(F)(F)F)CC1)nc(Nc1c(Cl)ccc(CNC(=O)C(C)(C)C)c1Cl)n2C` [Example 116], the half-maximal inhibitory concentration (IC50) stood at 0.08 µM.

With `Cn1c(Nc2c(Cl)ccc(CNC(=O)c3cccc[n+]3[O-])c2Cl)nc2cc(C(=O)NCCC(F)(F)F)c(N3CCC(C(F)(F)F)CC3)cc21` [Example 174], the half-inhibitory concentration (IC50) was greater than 0.1 µM.

Turning to `Cn1c(Nc2c(Cl)ccc(CNC(=O)c3cccc(CO)n3)c2Cl)nc2cc(C(=O)N[C@H]3CC[C@H](C(F)(F)F)CC3)c(N3CC4CC4C3)cc21` (some centres unmarked) [Example 206], the IC50 was found to be 0.042 µM.

On to `Cn1c(Nc2c(Cl)ccc(CNC(=O)C(C)(C)F)c2Cl)nc2cc(C(=O)N[C@H]3CC[C@H](C(F)(F)F)CC3)c(N3CCC(C(C)(C)O)CC3)cc21` [Example 124], for which the IC50 was found to be 0.002 µM.

As for `Cn1c(Nc2c(Cl)ccc(CNC(=O)C3(C)CC3)c2Cl)nc2cc(C(=O)N[C@H]3CC[C@H](C(F)(F)F)CC3)c(N3CC4CC4C3)cc21` (some centres unmarked) [Example 187], the IC50 was found to be 0.001 µM.

As to `Cn1c(Nc2c(Cl)ccc(CNC(=O)C3(C(F)(F)F)CC3)c2Cl)nc2cc(C(=O)N[C@H]3CC[C@H](C(F)(F)F)CC3)c(N3CC4CC4C3)cc21` (some centres unmarked) [Example 188], the IC50 stood at 0.001 µM.

Consider `Cn1ccnc1C(=O)NCc1ccc(Cl)c(Nc2nc3cc(C(=O)N[C@H]4CC[C@H](C(F)(F)F)CC4)c(N4CC5CC5C4)cc3n2C)c1Cl` (some centres unmarked) [Example 216], for which the IC50 turned out to be 0.027 µM.

With `Cn1c(Nc2c(Cl)ccc(CNC(=O)C(C)(C)F)c2Cl)nc2cc(C(=O)NCCC(F)(F)F)c(N3CCC4(CC3)CC4)cc21` [Example 147], the half-maximal inhibitory concentration (IC50) came out at 0.002 µM.

For the compound `Cn1c(Nc2c(Cl)ccc(CNC(=O)C(C)(C)F)c2Cl)nc2cc(C(=O)Nc3ccc(OC(F)(F)F)cc3)c(N3CCOCC3)cc21` [Example 142], the half-inhibitory concentration (IC50) came out at 0.002 µM.

Regarding `Cn1c(Nc2c(Cl)ccc(CNC(=O)c3cc[nH]n3)c2Cl)nc2cc(C(=O)NCCC(F)(F)F)c(N3CCC(C(F)(F)F)CC3)cc21` [Example 184], the half-inhibitory concentration (IC50) was greater than 0.1 µM.

For `Cn1c(Nc2c(Cl)ccc(CNC(=O)c3ncn[nH]3)c2Cl)nc2cc(C(=O)N[C@H]3CC[C@H](C(F)(F)F)CC3)c(N3CC4CC4C3)cc21` (some centres unmarked) [Example 215], the half-maximal inhibitory concentration (IC50) is greater than 0.1 µM.

`Cc1nc(C(=O)NCc2ccc(Cl)c(Nc3nc4cc(C(=O)N[C@H]5CC[C@H](C(F)(F)F)CC5)c(N5CC6CC6C5)cc4n3C)c2Cl)cs1` (some centres unmarked) [Example 228]: the IC50 is greater than 0.1 µM.

On to `Cn1c(Nc2c(Cl)ccc(CNC(=O)OC(C)(C)C)c2Cl)nc2cc(C(=O)NCCC(F)(F)F)c(N3CC4CC4C3)cc21` (centres unmarked) [Example 266], for which the IC50 is 0.023 µM.

With `CC(C)(O)Cn1c(Nc2c(Cl)ccc(CNC(=O)C(C)(C)C)c2Cl)nc2cc(C(=O)Nc3ccc(OC(F)(F)F)cc3)c(N3CCC(C(F)(F)F)CC3)cc21` [Example 167], the IC50 is 0.0024 µM.

For `Cn1c(Nc2c(Cl)ccc(CNC(=O)C(C)(C)F)c2Cl)nc2cc(C(=O)N[C@H]3CC[C@H](C(F)(F)F)CC3)c(N3CCOCC3)cc21` [Example 146], the IC50 is less than 0.001 µM.

Turning to `CNc1cncc(C(=O)NCc2ccc(Cl)c(Nc3nc4cc(C(=O)N[C@H]5CC[C@H](C(F)(F)F)CC5)c(N5CC6CC6C5)cc4n3C)c2Cl)c1` (some centres unmarked) [Example 198], the half-inhibitory concentration (IC50) is greater than 0.1 µM.

On to `Cn1c(Nc2c(Cl)ccc(CNC(=O)c3cn[nH]c3)c2Cl)nc2cc(C(=O)N[C@H]3CC[C@H](C(F)(F)F)CC3)c(N3CC4CC4C3)cc21` (some centres unmarked) [Example 221], for which the IC50 amounted to 0.053 µM.

Consider `Cc1noc(N)c1C(=O)NCc1ccc(Cl)c(Nc2nc3cc(C(=O)N[C@H]4CC[C@H](C(F)(F)F)CC4)c(N4CC5CC5C4)cc3n2C)c1Cl` (some centres unmarked) [Example 222], for which the IC50 is 0.1 µM.

Regarding `Cc1cc(C)nc(C(=O)NCc2ccc(Cl)c(Nc3nc4cc(C(=O)N[C@H]5CC[C@H](C(F)(F)F)CC5)c(N5CC6CC6C5)cc4n3C)c2Cl)c1` (some centres unmarked) [Example 202], the half-maximal inhibitory concentration (IC50) turned out to be 0.057 µM.

`Cn1c(Nc2c(Cl)ccc(CNC(=O)C3(O)CC3)c2Cl)nc2cc(C(=O)N[C@H]3CC[C@H](C(F)(F)F)CC3)c(N3CC4CC4C3)cc21` (some centres unmarked) [Example 189]: the half-inhibitory concentration (IC50) was 0.003 µM.

As to `Cn1c(Nc2c(Cl)ccc(CNC(=O)c3cc(CO)ccn3)c2Cl)nc2cc(C(=O)NCCC(F)(F)F)c(N3CCC(C(F)(F)F)CC3)cc21` [Example 181], the IC50 was greater than 0.1 µM.

With `CCn1c(C(=O)NCc2ccc(Cl)c(Nc3nc4cc(C(=O)N[C@H]5CC[C@H](C(F)(F)F)CC5)c(N5CC6CC6C5)cc4n3C)c2Cl)cccc1=O` (some centres unmarked) [Example 210], the half-maximal inhibitory concentration (IC50) was 0.008 µM.

On to `Cn1c(Nc2c(Cl)ccc(CNC(=O)c3cccc(C#N)n3)c2Cl)nc2cc(C(=O)N[C@H]3CC[C@H](C(F)(F)F)CC3)c(N3CC4CC4C3)cc21` (some centres unmarked) [Example 208], for which the IC50 turned out to be 0.021 µM.

With `COc1ncccc1C(=O)NCc1ccc(Cl)c(Nc2nc3cc(C(=O)N[C@H]4CC[C@H](C(F)(F)F)CC4)c(N4CC5CC5C4)cc3n2C)c1Cl` (some centres unmarked) [Example 211], the IC50 came to 0.106 µM.

`COc1cncc(C(=O)NCc2ccc(Cl)c(Nc3nc4cc(C(=O)N[C@H]5CC[C@H](C(F)(F)F)CC5)c(N5CC6CC6C5)cc4n3C)c2Cl)c1` (some centres unmarked) [Example 200]: the IC50 is greater than 0.1 µM.

As for `Cc1n[nH]c(CN(C)c2cc3c(cc2C(=O)NCC(F)(F)C(F)(F)F)nc(Nc2c(Cl)ccc(CNC(=O)C(C)(C)F)c2Cl)n3C)n1` [Example 152], the concentration for half-maximal inhibition (IC50) stood at 0.017 µM.

On to `Cc1noc(C)c1C(=O)NCc1ccc(Cl)c(Nc2nc3cc(C(=O)N[C@H]4CC[C@H](C(F)(F)F)CC4)c(N4CC5CC5C4)cc3n2C)c1Cl` (some centres unmarked) [Example 224], for which the IC50 was 0.067 µM.

For `Cc1nc(N)sc1C(=O)NCc1ccc(Cl)c(Nc2nc3cc(C(=O)N[C@H]4CC[C@H](C(F)(F)F)CC4)c(N4CC5CC5C4)cc3n2C)c1Cl` (some centres unmarked) [Example 225], the half-inhibitory concentration (IC50) turned out to be 0.071 µM.

Take `Cn1c(Nc2c(Cl)ccc(CNC(=O)C(C)(C)C)c2Cl)nc2cc(C(=O)N[C@H]3CC[C@H](C(F)(F)F)CC3)c(N3CCC(F)CC3)cc21` [Example 125]: the half-inhibitory concentration (IC50) was found to be 0.0014 µM.

In the case of `Cn1c(Nc2c(Cl)ccc(CNC(=O)c3cncc(O)c3)c2Cl)nc2cc(C(=O)N[C@H]3CC[C@H](C(F)(F)F)CC3)c(N3CC4CC4C3)cc21` (some centres unmarked) [Example 205], the IC50 is greater than 0.1 µM.

Regarding `Cn1c(Nc2c(Cl)ccc(CNC(=O)C(C)(C)C)c2Cl)nc2cc(C(=O)Nc3ccc(OC(F)(F)F)cc3)c(N3CCC(F)CC3)cc21` [Example 267], the half-inhibitory concentration (IC50) is 0.0017 µM.

`Cn1c(Nc2c(Cl)ccc(CNC(=O)c3cc(CO)ccn3)c2Cl)nc2cc(C(=O)N[C@H]3CC[C@H](C(F)(F)F)CC3)c(N3CC4CC4C3)cc21` (some centres unmarked) [Example 207]: the IC50 worked out at 0.17 µM.

Turning to `CN(C)c1ccnc(C(=O)NCc2ccc(Cl)c(Nc3nc4cc(C(=O)N[C@H]5CC[C@H](C(F)(F)F)CC5)c(N5CC6CC6C5)cc4n3C)c2Cl)c1` (some centres unmarked) [Example 195], the half-maximal inhibitory concentration (IC50) is 0.051 µM.

What is called IC50 is the midpoint of a concentration-inhibition curve.
